Experiments:
[1] = system: MDSCs and T cells; assay: T cell proliferation in a co-culture model of MDSCs and T cells (flow cytometry); type: cell-based, mice; details: MDSCs treated with 1 µM compound for 12 h, 48 h co-culture with T cells (1:1), compared to the control group
Procedure: Under sterile conditions, the tibia was removed, both ends of the bone were cut, and bone marrow was repeatedly flushed into a 15 mL centrifuge tube using a 1 mL syringe filled with culture medium. Centrifuge at 1600 rpm for 5 min to collect bone marrow cells. […] The spleen cell suspension was then transferred into a 15 mL centrifuge tube. Centrifuge at 1600 rpm for 5 min to collect T cells. Wash twice with 1×PBS. Resuspend the centrifuged T cells in 1 mL PBS and add 1 mL of 10 µM CFDA-SE solution. Incubate at room temperature for 8 min. […] After drug administration, collect MDSC cells into centrifuge tubes. Centrifuge at 1600 rpm for 5 min, remove supernatant, resuspend in 1 mL fresh medium, and plate. Add 1 mL stimulated activated T cells (1:1 ratio) for 48 h co-culture. After incubation, collect cells into centrifuge tubes, wash twice with PBS, and incubate with Fc antibody at room temperature in the dark for 10 min. Add CD3-labeled flow cytometry antibody and incubate at 4 °C in the dark for 30 min. After incubation, wash cells with PBS, resuspend in 300 µL PBS, and analyze by flow cytometry.

[2] = Conversion rate of salt-form prodrugs to parent compound in HEPES buffer solution; type: physicochemical
Procedure: Adjust the pH to 7.4 using 0.5 M NaOH, then dilute to a final volume 100 mL with distilled water.
(§1) Sample Analysis: Dissolve 0.6 mg of the compound in 250 µl of deionized water separately. Add 250 µl of mouse serum or HEPES 7.4 solution to the sample, incubate at a constant temperature of 37 °C, and collect samples at different time points. Pipette 20 µl of the sample to an EP tube, add 60 µl of methanol, vortex to mix thoroughly, and centrifuge at 12,000 rpm at 4 °C for 10 min. At 1 h, 2 h, 4 h, 8 h, and 12 h respectively, collect the supernatant for HPLC analysis. Inject 10 µL of sample and record the corresponding peak areas.

[3] = Conversion rate of salt-form prodrugs to parent compound in mouse plasma; type: in vitro ADME; details: 37 °C
Procedure: Pharmaceutically acceptable salts of guaiane-type sesquiterpene lactone derivatives were selected and evaluated for their conversion rates to Compound 1 and Compound 83 in plasma and HEPES buffer, with results shown in Tables 2-1, 2-2, 3-1, and 3-2.
Plasma Preparation: Collect mouse plasma into an EP tube pre-loaded with sodium heparin, centrifuge at 8000 rpm for 10 minutes at 4°C, and then collect the supernatant.
as §1, with “areas. Chromatographic conditions: Hanbang C18 column (4.6 × 250 mm, 5 µm); mobile phase: acetonitrile: […] ammonium formate solution = 60:40; flow rate 1.0 mL/min; detection wavelength 210 nm; column temperature 30 °C. [drawing 171] Table 2-1. Conversion Rate of Compounds 20-42 to Compound 1 at Different Time Points in HEPES Buffer Solution” for “areas.”

[4] = conversion to Compound 1, HEPES buffer pH 7.4, 37 °C, 1 h
[5] = conversion to Compound 1, HEPES buffer pH 7.4, 37 °C, 2 h
[6] = conversion to Compound 1, HEPES buffer pH 7.4, 37 °C, 4 h
[7] = conversion to Compound 1, HEPES buffer pH 7.4, 37 °C, 8 h
[8] = conversion to Compound 1, HEPES buffer pH 7.4, 37 °C, 12 h
[9] = conversion to Compound 1, mouse plasma, 1 h
[10] = conversion to Compound 1, mouse plasma, 2 h
[11] = conversion to Compound 1, mouse plasma, 8 h
[12] = conversion to Compound 1, mouse plasma, 12 h
[13] = conversion to Compound 83, HEPES buffer pH 7.4, 37 °C, 1 h
[14] = conversion to Compound 83, HEPES buffer pH 7.4, 37 °C, 2 h
[15] = conversion to Compound 83, HEPES buffer pH 7.4, 37 °C, 4 h
[16] = conversion to Compound 83, HEPES buffer pH 7.4, 37 °C, 8 h
[17] = conversion to Compound 83, HEPES buffer pH 7.4, 37 °C, 12 h
[18] = conversion to Compound 83, mouse plasma, 1 h
[19] = conversion to Compound 83, mouse plasma, 2 h
[20] = conversion to Compound 83, mouse plasma, 4 h
[21] = conversion to Compound 83, mouse plasma, 8 h
[22] = conversion to Compound 83, mouse plasma, 12 h

CN(C)C[C@@H]1C(=O)O[C@H]2[C@H]1CC[C@@]1(C)C[C@]13CC[C@@](C)(O)[C@H]23 [compound 2]
T-cell proliferation rate (%) [1]: ++ (T-cell proliferation rate within the 20-40% range compared to the control group)

CN(C)C[C@@H]1C(=O)O[C@H]2[C@H]1CC[C@@]1(C)C[C@]13CC[C@@](C)(O)[C@H]23 [compound 41]
Release rate [2, 4]: 7.0% | Release rate [2, 5]: 16.2% | Release rate [2, 6]: 27.3% | Release rate [2, 7]: 43.4% | Release rate [2, 8]: 53.2% | Release rate [3, 9]: 7.8% | Release rate [3, 10]: 17.2% | Release rate ([3]; conversion to Compound 1, mouse plasma, 4 h): 28.0% | Release rate [3, 11]: 46.1% | Release rate [3, 12]: 54.8%

CN(C)C[C@@H]1C(=O)O[C@H]2[C@H]1CC[C@@]1(C)C[C@]13CC[C@@](C)(O)[C@H]23 [compound 42]
Release rate [2, 4]: 7.0% | Release rate [2, 5]: 15.0% | Release rate [2, 6]: 25.2% | Release rate [2, 7]: 42.8% | Release rate [2, 8]: 52.3% | Release rate [3, 9]: 6.3% | Release rate [3, 10]: 14.2% | Release rate [3, 11]: 41.0% | Release rate [3, 12]: 47.2%

CC1CCN(C[C@@H]2C(=O)O[C@H]3[C@H]2CC[C@@]2(C)C[C@]24CC[C@@](C)(O)[C@H]34)CC1 [compound 43]
T-cell proliferation rate (%) [1]: + (T-cell proliferation rate within the 0-20% range compared to the control group)

CC(C)(C)OC(=O)N1CCN(C[C@@H]2C(=O)O[C@H]3[C@H]2CC[C@@]2(C)C[C@]24CC[C@@](C)(O)[C@H]34)CC1 [compound 44]
T-cell proliferation rate (%) [1]: + (T-cell proliferation rate within the 0-20% range compared to the control group)

CN(C)C[C@@H]1C(=O)O[C@H]2[C@H]1CC[C@@]1(C)C[C@]13C[C@@H](O)[C@@](C)(O)[C@H]23 [compound 60]
T-cell proliferation rate (%) [1]: + (T-cell proliferation rate within the 0-20% range compared to the control group)

CC1=C2[C@H]3OC(=O)[C@@H](CN(C)C)[C@@H]3CC[C@@]3(C)C[C@@]23CC1 [compound 62]
T-cell proliferation rate (%) [1]: + (T-cell proliferation rate within the 0-20% range compared to the control group)

CCC(=O)O[C@]1(C)CC[C@@]23C[C@]2(C)CC[C@@H]2[C@H](CC(=O)[C@H]2CN(C)C)[C@H]31 [compound 63]
T-cell proliferation rate (%) [1]: + (T-cell proliferation rate within the 0-20% range compared to the control group)

C=C1C(=O)O[C@H]2[C@H]1CCC(C)=C1CC[C@@](C)(OC(=O)NC)[C@@H]12 [compound 64]
T-cell proliferation rate (%) [1]: +++ (T-cell proliferation rate >40% compared to the control group)

C=C1C(=O)O[C@H]2[C@H]1CCC(C)=C1CC[C@@](C)(OC(=O)NCC)[C@@H]12 [compound 65]
T-cell proliferation rate (%) [1]: + (T-cell proliferation rate within the 0-20% range compared to the control group)

C=C1C(=O)O[C@H]2[C@H]1CCC(C)=C1CC[C@@](C)(OC(=O)NCCC)[C@@H]12 [compound 66]
T-cell proliferation rate (%) [1]: + (T-cell proliferation rate within the 0-20% range compared to the control group)

C=C1C(=O)O[C@H]2[C@H]1CCC(C)=C1CC[C@@](C)(OC(=O)NCCCC)[C@@H]12 [compound 67]
T-cell proliferation rate (%) [1]: ++ (T-cell proliferation rate within the 20-40% range compared to the control group)

C=C1C(=O)O[C@H]2[C@H]1CCC(C)=C1CC[C@@](C)(OC(=O)NC(C)C)[C@@H]12 [compound 68]
T-cell proliferation rate (%) [1]: + (T-cell proliferation rate within the 0-20% range compared to the control group)

C=C1C(=O)O[C@H]2[C@H]1CCC(C)=C1CC[C@@](C)(OC(=O)NC(CC)CC)[C@@H]12 [compound 69]
T-cell proliferation rate (%) [1]: ++ (T-cell proliferation rate within the 20-40% range compared to the control group)

C=C1C(=O)O[C@H]2[C@H]1CCC(C)=C1CC[C@@](C)(OC(=O)NC3CC3)[C@@H]12 [compound 70]
T-cell proliferation rate (%) [1]: + (T-cell proliferation rate within the 0-20% range compared to the control group)

C=C1C(=O)O[C@H]2[C@H]1CCC(C)=C1CC[C@@](C)(OC(=O)NCCO)[C@@H]12 [compound 71]
T-cell proliferation rate (%) [1]: +++ (T-cell proliferation rate >40% compared to the control group)

C=C1C(=O)O[C@H]2[C@H]1CCC(C)=C1CC[C@@](C)(OC(=O)NCCCO)[C@@H]12 [compound 72]
T-cell proliferation rate (%) [1]: ++ (T-cell proliferation rate within the 20-40% range compared to the control group)

C=C1C(=O)O[C@H]2[C@H]1CCC(C)=C1CC[C@@](C)(OC(=O)NCCOC)[C@@H]12 [compound 74]
T-cell proliferation rate (%) [1]: +++ (T-cell proliferation rate >40% compared to the control group)

C=C1C(=O)O[C@H]2[C@H]1CCC(C)=C1CC[C@@](C)(OC(=O)NCCCOC)[C@@H]12 [compound 75]
T-cell proliferation rate (%) [1]: ++ (T-cell proliferation rate within the 20-40% range compared to the control group)

C=C1C(=O)O[C@H]2[C@H]1CCC(C)=C1CC[C@@](C)(OC(=O)NCCOCCO)[C@@H]12 [compound 76]
T-cell proliferation rate (%) [1]: ++ (T-cell proliferation rate within the 20-40% range compared to the control group)

C=C1C(=O)O[C@H]2[C@H]1CCC(C)=C1CC[C@@](C)(OC(=O)NCCN(C)C)[C@@H]12 [compound 77]
T-cell proliferation rate (%) [1]: + (T-cell proliferation rate within the 0-20% range compared to the control group)

C=C1C(=O)O[C@H]2[C@H]1CCC(C)=C1CC[C@@](C)(OC(=O)NCc3ccccc3)[C@@H]12 [compound 79]
T-cell proliferation rate (%) [1]: ++ (T-cell proliferation rate within the 20-40% range compared to the control group)

C=C1C(=O)O[C@H]2[C@H]1CCC(C)=C1CC[C@@](C)(OC(=O)N(C)C)[C@@H]12 [compound 80]
T-cell proliferation rate (%) [1]: ++ (T-cell proliferation rate within the 20-40% range compared to the control group)

C=C1C(=O)O[C@H]2[C@H]1CCC(C)=C1CC[C@@](C)(OC(=O)N(CC)CC)[C@@H]12 [compound 81]
T-cell proliferation rate (%) [1]: ++ (T-cell proliferation rate within the 20-40% range compared to the control group)

C=C1C(=O)O[C@H]2[C@H]1CCC(C)=C1CC[C@@](C)(OC(=O)N3CCCC3)[C@@H]12 [compound 82]
T-cell proliferation rate (%) [1]: + (T-cell proliferation rate within the 0-20% range compared to the control group)

CC1=C2CC[C@@](C)(OC(=O)N3CCCCC3)[C@@H]2[C@H]2OC(=O)[C@@H](CN3CCCC3)[C@@H]2CC1 [compound 100]
Release rate [2, 13]: 6.5% | Release rate [2, 14]: 14.0% | Release rate [2, 15]: 26.4% | Release rate [2, 16]: 45.2% | Release rate [2, 17]: 51.4% | Release rate [3, 18]: 6.6% | Release rate [3, 19]: 13.8% | Release rate [3, 20]: 25.6% | Release rate [3, 21]: 43.2% | Release rate [3, 22]: 53.0%

CC1=C2CC[C@@](C)(OC(=O)N3CCCCC3)[C@@H]2[C@H]2OC(=O)[C@@H](CN3CCCC3)[C@@H]2CC1 [compound 101]
Release rate [2, 13]: 7.0% | Release rate [2, 14]: 16.0% | Release rate [2, 15]: 28.2% | Release rate [2, 16]: 46.4% | Release rate [2, 17]: 53.6% | Release rate [3, 18]: 7.6% | Release rate [3, 19]: 16.6% | Release rate [3, 20]: 27.4% | Release rate [3, 21]: 46.0% | Release rate [3, 22]: 54.2%

— EP4813381A1, “PHARMACEUTICAL USE OF GUAIANE SESQUITERPENE DERIVATIVE” (Nanjing University Of Chinese Medicine, priority 2023, dated 2025)
